Test results: PubChem BioAssay AID2060483 (Molecular Pharmacology Branch, DTP, NCI, 2025)

System: K24384-001-R-PDC complex spheroids, viability
Assay: Anticancer human tumor K24384-001-R-PDC patient-derived pancreatic adenocarcinoma cell line growth inhibition [GQUAD]
Conditions: for IC50: curve of first compound; for viability, T/C: stronger effect = lower value
Outline: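 Viability of tumor cells grown as complex spheroids with endothelial and stromal cells, exposed to drug combinations. Top concentration at or near clinical Cmax (else 10 microM), diluted in half-log increments.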

[1] = second compound 0.0316 µM, first compound 0.0316 µM
[2] = second compound 0.0316 µM, first compound 0.1 µM
[3] = second compound 0.0316 µM, first compound 0.316 µM
[4] = second compound 0.0316 µM, first compound 1 µM
[5] = second compound 0.0316 µM, first compound 3.16 µM
[6] = second compound 0.0316 µM, first compound 10 µM
[7] = second compound 0.1 µM, first compound 0.0316 µM
[8] = second compound 0.1 µM, first compound 0.1 µM
[9] = second compound 0.1 µM, first compound 0.316 µM
[10] = second compound 0.1 µM, first compound 1 µM
[11] = second compound 0.1 µM, first compound 3.16 µM
[12] = second compound 0.1 µM, first compound 10 µM
[13] = second compound 0.316 µM, first compound 0.0316 µM
[14] = second compound 0.316 µM, first compound 0.1 µM
[15] = second compound 0.316 µM, first compound 0.316 µM
[16] = second compound 0.316 µM, first compound 1 µM
[17] = second compound 0.316 µM, first compound 3.16 µM
[18] = second compound 0.316 µM, first compound 10 µM
[19] = second compound 1 µM, first compound 0.0316 µM
[20] = second compound 1 µM, first compound 0.1 µM
[21] = second compound 1 µM, first compound 0.316 µM
[22] = second compound 1 µM, first compound 1 µM
[23] = second compound 1 µM, first compound 3.16 µM
[24] = second compound 1 µM, first compound 10 µM
[25] = second compound 3.16 µM, first compound 0.0316 µM
[26] = second compound 3.16 µM, first compound 0.1 µM
[27] = second compound 3.16 µM, first compound 0.316 µM
[28] = second compound 3.16 µM, first compound 1 µM
[29] = second compound 3.16 µM, first compound 3.16 µM
[30] = second compound 3.16 µM, first compound 10 µM
[31] = second compound 10 µM, first compound 0.0316 µM
[32] = second compound 10 µM, first compound 0.1 µM
[33] = second compound 10 µM, first compound 0.316 µM
[34] = second compound 10 µM, first compound 1 µM
[35] = second compound 10 µM, first compound 3.16 µM
[36] = second compound 10 µM, first compound 10 µM
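Also: spheroids exposed to compounds for seven days.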

CCCS(=O)(=O)Nc1ccc(F)c(C(=O)c2c[nH]c3ncc(-c4ccc(Cl)cc4)cc23)c1F + CN(C)c1ccc(Nc2c3ccc(NC(=O)CCN4CCCC4)cc3nc3cc(NC(=O)CCN4CCCC4)ccc23)cc1
IC50 (second compound 0.0316 µM): > 10000 nM | IC50 (second compound 0.1 µM): 9980 nM | IC50 (second compound 0.316 µM): > 10000 nM | IC50 (second compound 1 µM): > 10000 nM | IC50 (second compound 3.16 µM): 9350 nM | IC50 (second compound 10 µM): 7840 nM | viability, T/C [1]: 110% | viability, T/C [2]: 102% | viability, T/C [3]: 129% | viability, T/C [4]: 128% | viability, T/C [5]: 138% | viability, T/C [6]: 54% | viability, T/C [7]: 98.5% | viability, T/C [8]: 118% | viability, T/C [9]: 113% | viability, T/C [10]: 124% | viability, T/C [11]: 150% | viability, T/C [12]: 49.8% | viability, T/C [13]: 93.5% | viability, T/C [14]: 114% | viability, T/C [15]: 124% | viability, T/C [16]: 125% | viability, T/C [17]: 144% | viability, T/C [18]: 52% | viability, T/C [19]: 102% | viability, T/C [20]: 105% | viability, T/C [21]: 117% | viability, T/C [22]: 131% | viability, T/C [23]: 154% | viability, T/C [24]: 53.3% | viability, T/C [25]: 92.7% | viability, T/C [26]: 101% | viability, T/C [27]: 97.2% | viability, T/C [28]: 128% | viability, T/C [29]: 140% | viability, T/C [30]: 46% | viability, T/C [31]: 84.3% | viability, T/C [32]: 114% | viability, T/C [33]: 109% | viability, T/C [34]: 149% | viability, T/C [35]: 139% | viability, T/C [36]: 31.3%

Cc1[nH]c2ccccc2c1CCNCc1ccc(/C=C/C(=O)NO)cc1 + CN(C)c1ccc(Nc2c3ccc(NC(=O)CCN4CCCC4)cc3nc3cc(NC(=O)CCN4CCCC4)ccc23)cc1
IC50 (second compound 0.0316 µM): 139 nM | IC50 (second compound 0.1 µM): 103 nM | IC50 (second compound 0.316 µM): 101 nM | IC50 (second compound 1 µM): 109 nM | IC50 (second compound 3.16 µM): 99.1 nM | IC50 (second compound 10 µM): 83.7 nM | viability, T/C (second compound 0.0316 µM, first compound 0.000999 µM): 106% | viability, T/C (second compound 0.0316 µM, first compound 0.00316 µM): 99% | viability, T/C (second compound 0.0316 µM, first compound 0.00999 µM): 101% | viability, T/C [1]: 105% | viability, T/C (second compound 0.0316 µM, first compound 0.0999 µM): 67.5% | viability, T/C [3]: 6.39% | viability, T/C (second compound 0.1 µM, first compound 0.000999 µM): 113% | viability, T/C (second compound 0.1 µM, first compound 0.00316 µM): 106% | viability, T/C (second compound 0.1 µM, first compound 0.00999 µM): 107% | viability, T/C [7]: 105% | viability, T/C (second compound 0.1 µM, first compound 0.0999 µM): 51% | viability, T/C [9]: 7.07% | viability, T/C (second compound 0.316 µM, first compound 0.000999 µM): 104% | viability, T/C (second compound 0.316 µM, first compound 0.00316 µM): 89.3% | viability, T/C (second compound 0.316 µM, first compound 0.00999 µM): 95.3% | viability, T/C [13]: 100% | viability, T/C (second compound 0.316 µM, first compound 0.0999 µM): 50.4% | viability, T/C [15]: 4.91% | viability, T/C (second compound 1 µM, first compound 0.000999 µM): 93.5% | viability, T/C (second compound 1 µM, first compound 0.00316 µM): 100% | viability, T/C (second compound 1 µM, first compound 0.00999 µM): 114% | viability, T/C [19]: 103% | viability, T/C (second compound 1 µM, first compound 0.0999 µM): 53.4% | viability, T/C [21]: 5.91% | viability, T/C (second compound 3.16 µM, first compound 0.000999 µM): 96.4% | viability, T/C (second compound 3.16 µM, first compound 0.00316 µM): 101% | viability, T/C (second compound 3.16 µM, first compound 0.00999 µM): 104% | viability, T/C [25]: 94.6% | viability, T/C (second compound 3.16 µM, first compound 0.0999 µM): 49.7% | viability, T/C [27]: 6.33% | viability, T/C (second compound 10 µM, first compound 0.000999 µM): 90.7% | viability, T/C (second compound 10 µM, first compound 0.00316 µM): 91.7% | viability, T/C (second compound 10 µM, first compound 0.00999 µM): 101% | viability, T/C [31]: 97.1% | viability, T/C (second compound 10 µM, first compound 0.0999 µM): 41.8% | viability, T/C [33]: 6.78%

O=C(NO)c1cnc(N2CCN(S(=O)(=O)c3ccc4ccccc4c3)CC2)nc1 + CN(C)c1ccc(Nc2c3ccc(NC(=O)CCN4CCCC4)cc3nc3cc(NC(=O)CCN4CCCC4)ccc23)cc1
IC50 (second compound 0.0316 µM): 603 nM | IC50 (second compound 0.1 µM): 511 nM | IC50 (second compound 0.316 µM): 553 nM | IC50 (second compound 1 µM): 554 nM | IC50 (second compound 3.16 µM): 475 nM | IC50 (second compound 10 µM): 476 nM | viability, T/C [1]: 111% | viability, T/C [2]: 91.6% | viability, T/C [3]: 83.1% | viability, T/C [4]: 25.2% | viability, T/C [5]: 0.22% | viability, T/C [6]: 0.18% | viability, T/C [7]: 111% | viability, T/C [8]: 97.7% | viability, T/C [9]: 70.1% | viability, T/C [10]: 23.5% | viability, T/C [11]: 0.13% | viability, T/C [12]: 0.14% | viability, T/C [13]: 108% | viability, T/C [14]: 126% | viability, T/C [15]: 74.3% | viability, T/C [16]: 23.4% | viability, T/C [17]: 0.14% | viability, T/C [18]: 0.18% | viability, T/C [19]: 107% | viability, T/C [20]: 117% | viability, T/C [21]: 73.6% | viability, T/C [22]: 24.3% | viability, T/C [23]: 0.16% | viability, T/C [24]: 0.16% | viability, T/C [25]: 105% | viability, T/C [26]: 103% | viability, T/C [27]: 65.3% | viability, T/C [28]: 20.6% | viability, T/C [29]: 0.14% | viability, T/C [30]: 0.16% | viability, T/C [31]: 105% | viability, T/C [32]: 92.3% | viability, T/C [33]: 65.1% | viability, T/C [34]: 24.7% | viability, T/C [35]: 0.22% | viability, T/C [36]: 0.22%
